Measurements published in patent US20160256560A1, “Environmentally Sensitive Compositions” (priority 2010, published 2016).
Where two headings read alike, the source gives them in different places. *1 amine or outer side, *2 acyl side, *3 side chain or, on linkers, in order; H or OH if unused. Where a SMILES comes first, the peptide text is derived from it. Bridges are numbered along the chain shown (N, C = ends). Where no end group is shown, it is not given here. [ ]: non-standard residue; d: D form. ξ: configuration not given here. ξTrp(2-yl) = O=C(C(Cc1c([*:3])[nH]c2ccccc12)N[*:1])[*:2]; X1 = CC(O)(CO)CC(N[*:1])C(=O)[*:2]; Hyp = O=C(O)[CH]1C[CH](O)CN1

Assays:
HeLa cells [1] = format: cell-based, human; details: 1 uM, pH 6.2, 1.5 h
[2] = format: physicochemical; details: absorbance at 300 nm
Method: Peptides were labeled at the C-terminal Cys residues using the membrane-impermeable compound maleimide-PEG2-biotin (Thermo Scientific), which has a long polar spacer arm of 29.1 Å that allows adequate biotin binding to avidin. The synthesis reaction was performed in 10 mM phosphate buffer, pH 7.5 (overnight incubation at 4° C.). Reaction products were purified by HPLC, and the mass of the biotin-labeled peptides checked by MALDI-TOF mass spectrometry. The octanol/water partition coefficient of maleimide-PEG2-biotin was determined experimentally by measuring the absorbance at 300 nm in the aqueous and octanol (previously pre-equilibrated with water) phases after a 2 h vortexing. A log P value of −1.07±0.02 was obtained. […] (Kuyper et al., 2006, J. Am. Chem. Soc. 128(10), 3233-40).

HeLa cells [3] = tested on: HeLa cells
JC cells = details: pH 6.1
[4] = format: in vitro ADME; details: pH 6.2
actin filaments = details: read-out: Kd, binding to actin filaments; cited from earlier work
physchem [5] = experiment: physchem
tumor [6] = details: in vivo
physchem [7] = experiment: physchem; remark: listed apart in the source
tumor [8] = experiment: Animal studies of variants: tumor/organ fluorescence 4 and 24 h post-injection; details: after 24 hours
[9] = Analytical ultracentrifugation, sedimentation velocity; format: physicochemical; details: 7 μM, pH 8
[10] = mouse, in vivo
HeLa cells [11] = format: cell-based, human
[12] = Stopped-flow fluorescence and CD kinetics of insertion/folding and exit/unfolding; format: physicochemical
GFP fluorescent tumors = details: mouse, in vivo
[13] = target: Rabbit muscle actin, polymerized filamentous actin (F-actin) (rabbit) (UniProt P68135); experiment: fluorescence anisotropy (ex 570 nm / em 610 nm), separate titration of phallTxR by F-actin without competitor; value for fully bound tracer
[14] = target: Rabbit muscle actin, polymerized filamentous actin (F-actin) (rabbit) (UniProt P68135); experiment: fluorescence anisotropy (ex 570 nm / em 610 nm), titration of phallTxR by F-actin; value for unbound tracer
[15] = Membrane affinity and insertion kinetics of variants Var1-16; format: physicochemical; details: relative to WT pHLIP
HeLa tumors = details: mouse, in vivo
[16] = in vivo; cited from earlier work
[17] = tested on: luciferase pre-mRNA aberrant splice sites in HeLa cells; format: cell-based, human

CC[C@H](C)[C@@H]1NC(=O)CNC(=O)[C@@H]2Cc3c([nH]c4cc(O)ccc34)[S@+]([O-])C[C@H](NC(=O)CNC1=O)C(=O)N[C@@H](CC(N)=O)C(=O)N1C[C@H](O)C[C@H]1C(=O)N[C@@H]([C@@H](C)[C@@H](O)CO)C(=O)N2 [amanitin, α-amanitin]
cell growth after treatment (ECIS) (HeLa cells [1]): continue to grow

O=C(CCCC[C@@H]1SC[C@@H]2NC(=O)N[C@@H]21)NCCOCCOCCNC(=O)CCN1C(=O)C=CC1=O [maleimide-PEG2-biotin]
log P (octanol/water) [2]: −1.07±0.02

CC[C@H](C)[C@H](NC(=O)[C@@H]1CCCN1C(=O)[C@H](CC(N)=O)NC(=O)[C@H](CCC(N)=O)NC(=O)[C@H](CCC(=O)O)NC(=O)[C@H](C)NC(=O)[C@H](C)NC(C)=O)C(=O)N[C@@H](Cc1ccc(O)cc1)C(=O)N[C@@H](Cc1c[nH]c2ccccc12)C(=O)N[C@@H](C)C(=O)N[C@@H](CCCNC(=N)N)C(=O)N[C@@H](Cc1ccc(O)cc1)C(=O)N[C@@H](C)C(=O)N[C@@H](CC(=O)O)C(=O)N[C@@H](Cc1c[nH]c2ccccc12)C(=O)N[C@@H](CC(C)C)C(=O)N[C@@H](Cc1ccccc1)C(=O)N[C@H](C(=O)N[C@H](C(=O)N1CCC[C@H]1C(=O)N[C@@H](CC(C)C)C(=O)N[C@@H](CC(C)C)C(=O)N[C@@H](CC(C)C)C(=O)N[C@@H](CC(C)C)C(=O)N[C@@H](CC(=O)O)C(=O)N[C@@H](CC(C)C)C(=O)N[C@@H](C)C(=O)N[C@@H](CC(C)C)C(=O)N[C@@H](CC(C)C)C(=O)N[C@H](C(=O)N[C@@H](CC(=O)O)C(=O)N[C@@H](C)C(=O)N[C@@H](CC(=O)O)C(=O)N[C@@H](CCC(=O)O)C(=O)NCC(=O)N[C@H](C(=O)N[C@@H](CCCCNC(=O)c1ccc(-c2c3ccc(N(C)C)cc3[o+]c3cc(N(C)C)ccc23)c(C(=O)[O-])c1)C(=O)N[C@@H](CSSCCC(=O)NC[C@](C)(O)C[C@@H]1NC(=O)[C@@H]2Cc3c([nH]c4ccccc34)SC[C@H](NC(=O)[C@@H]([C@H](C)O)NC(=O)[C@H](C)NC1=O)C(=O)N1C[C@@H](O)C[C@H]1C(=O)N[C@@H](C)C(=O)N2)C(=O)NCC(=O)O)[C@@H](C)O)C(C)C)[C@@H](C)O)[C@@H](C)O [pHLIP-K(rho)C(aph)]
effect on cell growth (HeLa cells [3]; pH 7.4): did not have any effect on cell growth | inhibition of JC growth (JC cells): 78% | multinucleation (HeLa or M4A4 cells): became multinucleated | cytoskeletal immobilization on trypsinization / cytotoxic morphology (HeLa or M4A4 cells; pH 6.1): exhibited a reduced ability to contract | decomposition during cell incubation (HPLC) [4]: no detectable decomposition | inhibition of M4A4 proliferation (M4A4 cells; pH 6.2): 92%

CC1NC(=O)C(CC(C)(O)CO)NC(=O)C2Cc3c([nH]c4ccccc34)SCC(NC(=O)C(C(C)O)NC1=O)C(=O)N1CC(O)CC1C(=O)NC(C)C(=O)N2 (stereo not drawn) [phalloidin] (cyclo([X1]ATC[Hyp]A[ξTrp(2-yl)]); thioether 4-7; configuration not given here)
inhibitory effect on HeLa proliferation (HeLa cells [3]): no inhibitory effect | Kd (actin filaments): < 40 nM | inhibitory effect on M4A4 proliferation (M4A4 cells): no inhibitory effect | logP (physchem [5]): -1.5

AAEQNPIYWARYADWLFTTGLLLLDLALLVDADEGT [P20G]
Findings: biodistribution / blood clearance (tumor [6]): Goes the liver | pKa (physchem [7]): ~6.7

ACDDQNPWRAYLDLLFPTDTLLLDLLW [Var3-3D]
retention in kidney (tumor [8]): also retained in the kidney after 24 hours

ACEEQNPWARYLEWLFPTETLLLEL [Cys-Short-3E]
retention in kidney (tumor [8]): also retained in the kidney after 24 hours

H-GGEQNPIYWARYADWLFTTPLLLLDLALLVDADEGT-OH [pHLIP]
inhibitory effect on HeLa proliferation (HeLa cells [3]): no inhibition of proliferation was observed | oligomer share of total population [9]: ~6% | adverse effects [10]: did not show any adverse effects | recruitment of anti-DNP antibodies, pH 6.2 versus pH 7.4 (times more) (HeLa cells [11]): not capable of significantly recruiting | interfacial helix formation time [12]: 0.1 s | pH range over which titration occurs: ~1 pH unit | toxic effects in mice (GFP fluorescent tumors): did not induce any toxic effects

Texas Red-X phalloidin (peptide)
fluorescence anisotropy [13]: 0.24 | fluorescence anisotropy [14]: 0.04

WT-reverse (TEDADVLLALDLLLLPTTFLWDAYRAWYPNQECA)
Findings: Inserts into membrane, times faster than WT [15]: Inserts into membrane 10 times

gold nanoparticles
amount of gold, Bladder (HeLa tumors): 0.010 ± 0.094 % of injected dose per gram of tissue | amount of gold, Blood (HeLa tumors): 0.028 ± 0.028 % of injected dose per gram of tissue | amount of gold, Heart (HeLa tumors): 0.075 ± 0.010 % of injected dose per gram of tissue | amount of gold, Intestine (HeLa tumors): 0.034 ± 0.021 % of injected dose per gram of tissue | amount of gold, Kidney (HeLa tumors): 1.561 ± 0.098 % of injected dose per gram of tissue | amount of gold, Liver (HeLa tumors): 0.082 ± 0.082 % of injected dose per gram of tissue | amount of gold, Lung (HeLa tumors): 0.119 ± 0.025 % of injected dose per gram of tissue | amount of gold, Muscle (HeLa tumors): 1.836 ± 0.071 % of injected dose per gram of tissue | amount of gold, Skin (HeLa tumors): 0.129 ± 0.041 % of injected dose per gram of tissue | amount of gold, Spleen (HeLa tumors): 0.097 ± 0.039 % of injected dose per gram of tissue | amount of gold, Stomach (HeLa tumors): 0.012-30.011 % of injected dose per gram of tissue | amount of gold, Bladder (HeLa tumors; iv): 0.050 ± 0.050 % of injected dose per gram of tissue | amount of gold, Blood (HeLa tumors; iv): 0.091 ± 0.020 % of injected dose per gram of tissue | amount of gold, Heart (HeLa tumors; iv): 0.069 ± 0.004 % of injected dose per gram of tissue | amount of gold, Intestine (HeLa tumors; iv): 0.073 ± 0.002 % of injected dose per gram of tissue | amount of gold, Kidney (HeLa tumors; iv): 1.206 ± 0.078 % of injected dose per gram of tissue | amount of gold, Liver (HeLa tumors; iv): 0.392 ± 0.031 % of injected dose per gram of tissue | amount of gold, Lung (HeLa tumors; iv): 0.128 ± 0.000 % of injected dose per gram of tissue | amount of gold, Muscle (HeLa tumors; iv): 0.053 ± 0.005 % of injected dose per gram of tissue | amount of gold, Skin (HeLa tumors; iv): 0.204 ± 0.029 % of injected dose per gram of tissue | amount of gold, Spleen (HeLa tumors; iv): 0.089 ± 0.045 % of injected dose per gram of tissue | amount of gold, Stomach (HeLa tumors; iv): 0.081 ± 0.000 % of injected dose per gram of tissue | LD50 [16]: approximately 3.2 g Au kg^−1

pHLIP-S—S-CCTCTTACCTCAGTTACA (all peptide nucleic acid (PNA); pHLIP peptide disulfide-linked to the PNA, end not given here) [pHLIP-PNA construct]
luciferase activity localized to tumor sites [17]: significantly higher luciferase activity | uptake by cells in vivo compared to other constructs [17]: Significantly greater amounts
